Patent US12077503B2, “Substituted cyclic amides and their use as herbicides” (FMC CORPORATION, priority 2015, dated 2024)

Experiments:
Assay in all cases: Test C postemergence
Assay type in all cases: in vivo
Settings in all cases: scale 0 to 100, 0 no effect, 100 complete control
[1] = tested on: Galium (catchweed bedstraw, Galium aparine)
Procedure, shortened: (§1)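 Preemergence: sow in loam-sand soil and treat. Postemergence: grow in peat-moss/vermiculite medium to 2–18 cm (1–4 leaves) and spray. Compound in non-phytotoxic solvent with surfactant; keep in greenhouse 13–15 d; score visually against controls, 0 (none) to 100 (full control).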

Kochia (Kochia scoparia) = tested on: Kochia (Kochia scoparia)
Procedure, shortened: as §1

[2] = tested on: barnyardgrass (Echinochloa crus-galli)
Procedure, shortened: as §1

[3] = tested on: blackgrass (Alopecurus myosuroides)
Procedure, shortened: as §1

[4] = tested on: chickweed (common chickweed, Stellaria media)
Procedure, shortened: as §1

corn (Zea mays) = tested on: corn (Zea mays)
Procedure, shortened: as §1

[5] = tested on: crabgrass, large (large crabgrass, Digitaria sanguinalis)
Procedure, shortened: as §1

[6] = tested on: foxtail, giant (giant foxtail, Setaria faberii)
Procedure, shortened: as §1

[7] = tested on: johnsongrass (Sorghum halepense)
Procedure, shortened: as §1

[8] = tested on: lambsquarters (Chenopodium album)
Procedure, shortened: as §1

[9] = tested on: morningglory (Ipomoea coccinea)
Procedure, shortened: as §1

[10] = tested on: nutsedge, yellow (yellow nutsedge, Cyperus esculentus)
Procedure, shortened: as §1

[11] = tested on: oat, wild (wild oat, Avena fatua)
Procedure, shortened: as §1

[12] = tested on: oilseed rape (Brassica napus)
Procedure, shortened: as §1

[13] = tested on: pigweed (Amaranthus retroflexus)
Procedure, shortened: as §1

[14] = tested on: ragweed (common ragweed, Ambrosia elatior)
Procedure, shortened: as §1

[15] = tested on: ryegrass, Italian (Italian ryegrass, Lolium multiflorum)
Procedure, shortened: as §1

soybean (Glycine max) = tested on: soybean (Glycine max)
Procedure, shortened: as §1

[16] = tested on: velvetleaf (Abutilon theophrasti)
Procedure, shortened: as §1

[17] = tested on: waterhemp (common waterhemp, Amaranthus rudis)
Procedure, shortened: as §1

[18] = tested on: wheat (winter wheat, Triticum aestivum)
Procedure, shortened: as §1

CN1C[C@H](c2ccc(F)c(F)c2)[C@@H](C(=O)Nc2ccccc2F)C1=O [Compound 596, (3S,4S)-4-(3,4-difluorophenyl)-N-(2-fluorophenyl)-1-methyl-2-oxo-3-pyrrolidinecarboxamide]
Plant response rating, Galium ([1]; 31 g ai/ha): 40
Plant response rating, Galium ([1]; 62 g ai/ha): 45
Plant response rating, Galium ([1]; 125 g ai/ha): 60
Plant response rating, Galium ([1]; 250 g ai/ha): 60
Plant response rating, Kochia (Kochia (Kochia scoparia); 31 g ai/ha): 30
Plant response rating, Kochia (Kochia (Kochia scoparia); 62 g ai/ha): 30
Plant response rating, Kochia (Kochia (Kochia scoparia); 125 g ai/ha): 35
Plant response rating, Kochia (Kochia (Kochia scoparia); 250 g ai/ha): 60
Plant response rating, Barnyardgrass ([2]; 31 g ai/ha): 0
Plant response rating, Barnyardgrass ([2]; 62 g ai/ha): 30
Plant response rating, Barnyardgrass ([2]; 125 g ai/ha): 45
Plant response rating, Barnyardgrass ([2]; 250 g ai/ha): 65
Plant response rating, Blackgrass ([3]; 31 g ai/ha): 0
Plant response rating, Blackgrass ([3]; 62 g ai/ha): 0
Plant response rating, Blackgrass ([3]; 125 g ai/ha): 0
Plant response rating, Blackgrass ([3]; 250 g ai/ha): 10
Plant response rating, Chickweed ([4]; 31 g ai/ha): 20
Plant response rating, Chickweed ([4]; 62 g ai/ha): 20
Plant response rating, Chickweed ([4]; 125 g ai/ha): 25
Plant response rating, Chickweed ([4]; 250 g ai/ha): 80
Plant response rating, Corn (corn (Zea mays); 31 g ai/ha): 0
Plant response rating, Corn (corn (Zea mays); 62 g ai/ha): 0
Plant response rating, Corn (corn (Zea mays); 125 g ai/ha): 0
Plant response rating, Corn (corn (Zea mays); 250 g ai/ha): 10
Plant response rating, Crabgrass, Large ([5]; 31 g ai/ha): 30
Plant response rating, Crabgrass, Large ([5]; 62 g ai/ha): 65
Plant response rating, Crabgrass, Large ([5]; 125 g ai/ha): 65
Plant response rating, Crabgrass, Large ([5]; 250 g ai/ha): 75
Plant response rating, Foxtail, Giant ([6]; 31 g ai/ha): 10
Plant response rating, Foxtail, Giant ([6]; 62 g ai/ha): 20
Plant response rating, Foxtail, Giant ([6]; 125 g ai/ha): 50
Plant response rating, Foxtail, Giant ([6]; 250 g ai/ha): 80
Plant response rating, Johnsongrass ([7]; 31 g ai/ha): 0
Plant response rating, Johnsongrass ([7]; 62 g ai/ha): 0
Plant response rating, Johnsongrass ([7]; 125 g ai/ha): 0
Plant response rating, Johnsongrass ([7]; 250 g ai/ha): 10
Plant response rating, Lambsquarters ([8]; 31 g ai/ha): 35
Plant response rating, Lambsquarters ([8]; 62 g ai/ha): 35
Plant response rating, Lambsquarters ([8]; 125 g ai/ha): 40
Plant response rating, Lambsquarters ([8]; 250 g ai/ha): 55
Plant response rating, Morningglory ([9]; 31 g ai/ha): 0
Plant response rating, Morningglory ([9]; 62 g ai/ha): 10
Plant response rating, Morningglory ([9]; 125 g ai/ha): 25
Plant response rating, Morningglory ([9]; 250 g ai/ha): 50
Plant response rating, Nutsedge, Yellow ([10]; 31 g ai/ha): 0
Plant response rating, Nutsedge, Yellow ([10]; 62 g ai/ha): 0
Plant response rating, Nutsedge, Yellow ([10]; 125 g ai/ha): 10
Plant response rating, Nutsedge, Yellow ([10]; 250 g ai/ha): 10
Plant response rating, Oat, Wild ([11]; 31 g ai/ha): 0
Plant response rating, Oat, Wild ([11]; 62 g ai/ha): 0
Plant response rating, Oat, Wild ([11]; 125 g ai/ha): 0
Plant response rating, Oat, Wild ([11]; 250 g ai/ha): 5
Plant response rating, Oilseed Rape ([12]; 31 g ai/ha): 0
Plant response rating, Oilseed Rape ([12]; 62 g ai/ha): 0
Plant response rating, Oilseed Rape ([12]; 125 g ai/ha): 30
Plant response rating, Oilseed Rape ([12]; 250 g ai/ha): 30
Plant response rating, Pigweed ([13]; 31 g ai/ha): 10
Plant response rating, Pigweed ([13]; 62 g ai/ha): 10
Plant response rating, Pigweed ([13]; 125 g ai/ha): 35
Plant response rating, Pigweed ([13]; 250 g ai/ha): 30
Plant response rating, Ragweed ([14]; 31 g ai/ha): 0
Plant response rating, Ragweed ([14]; 62 g ai/ha): 0
Plant response rating, Ragweed ([14]; 125 g ai/ha): 0
Plant response rating, Ragweed ([14]; 250 g ai/ha): 15
Plant response rating, Ryegrass, Italian ([15]; 31 g ai/ha): 0
Plant response rating, Ryegrass, Italian ([15]; 62 g ai/ha): 0
Plant response rating, Ryegrass, Italian ([15]; 125 g ai/ha): 0
Plant response rating, Ryegrass, Italian ([15]; 250 g ai/ha): 0
Plant response rating, Soybean (soybean (Glycine max); 31 g ai/ha): 0
Plant response rating, Soybean (soybean (Glycine max); 62 g ai/ha): 0
Plant response rating, Soybean (soybean (Glycine max); 125 g ai/ha): 10
Plant response rating, Soybean (soybean (Glycine max); 250 g ai/ha): 0
Plant response rating, Velvetleaf ([16]; 31 g ai/ha): 35
Plant response rating, Velvetleaf ([16]; 62 g ai/ha): 35
Plant response rating, Velvetleaf ([16]; 125 g ai/ha): 50
Plant response rating, Velvetleaf ([16]; 250 g ai/ha): 55
Plant response rating, Waterhemp ([17]; 31 g ai/ha): 0
Plant response rating, Waterhemp ([17]; 62 g ai/ha): 0
Plant response rating, Waterhemp ([17]; 125 g ai/ha): 20
Plant response rating, Waterhemp ([17]; 250 g ai/ha): 30
Plant response rating, Wheat ([18]; 31 g ai/ha): 0
Plant response rating, Wheat ([18]; 62 g ai/ha): 0
Plant response rating, Wheat ([18]; 125 g ai/ha): 0
Plant response rating, Wheat ([18]; 250 g ai/ha): 0
